Measurements from patent US7050620B2, “Method of assaying shape and structural features in cells” (priority 2001, dated 2006).
“Also recorded” adds a separate entry of the source.

What was measured:
[1] = tested on: IAR20 PC1 cells; test: Factor-based classification of cell shape phenotype from interference contours (predicted time in culture); design: species or system rat; details: for shift of signature-type (mean predicted time) versus control, in words / mean predicted time (signature-type, factor-based classification): 2 hr exposure; for shift of signature-type (mean predicted time) versus control, in words: taxanes 6–18 μM, baccatin III 9 μM, colchicine 2 μM; for factors used in classification whose values changed significantly: 2 h exposure; for mean predicted time (signature-type, factor-based classification): FIG. 1 experiment, 2 μM colchicine, 18 μM paclitaxel, 10 μM valinomycin, 0.5 μM gramicidin D, 200 μM quinidine, control 283 days; for factor #4 value (filopodia / sharp projections at cell edge) / factor #7 value (knob-like structures at the cell edge) / factor #8 value (sharp features in the second contour): versus control; for factor #12 value (slope at which cell rises from substratum, rounding-up): versus control / direction relative to signature-type; for factor #8 value (sharp features in the second contour): monensin 24 μM
Experimental: (§1) Cell lines and interference preparations. Equations were developed to define changes in the signature-type for two epithelial cell lines that underwent transformation over a prolonged time of in vivo culture. […] IAR20 PC1 was a clonal derivative of a line called IAR20, which was cultured from liver cells of a BD-VI rat. […] Liver cells were grown in William's E medium supplemented with 10% fetal bovine serum, whereas the tracheal cells were grown in Waymouth's medium containing fetal bovine serum plus 0.1 μg/ml insulin and 0.1 μg /ml hydrocortisone. The cells were maintained and subcultured as described elsewhere (1,3). For experiments with insulin supplementation, insulin concentrations were raised to 1 and 10 μg/ml and maintained for two passages before the cells were used.
(§2) Information about shape features was derived from interference images. These were generated by culturing cells on anodized tantalum substrates, and then imaging them in reflected light. Cells were plated on substrates in replicate dishes, left overnight, and then exposed to experimental agents or to the solvent vehicle alone. After incubation with the agents for 2–5 h, samples were recovered, fixed in buffered 3% glutaraldehyde (pH 7.3), and air-dried. Randomly selected cells were imaged in a Zeiss Universal microscope, and the outlines of their three lowermost interference contours were digitized. […] Each experimental treatment was represented by a total of 50 cells.
(§3) Classification procedures. The classification methods employed a subset of the contour shape variables. Each 50-cell sample was submitted to multiple linear regression analysis for classification alongside a group of cells representing normal and transformed reference samples. The latter were obtained from the lines that underwent transformation as described above. Because the signature-type value was assigned relative to these samples, the solutions were in units of predicted time in culture. After obtaining such a value for each cell in an experiment, the differences in mean predicted times for treated and control cells were calculated. The sum of the squared standard deviations, divided by the number of observations, n, was used to compute the confidence limits of the mean: (s1)^2/n+(s2)^2/n Where s was the standard deviation for each sample. Dividing the difference between the means by the square root of the above expression yields a value that can be related to the degree of confidence, 1-α. […] This value was equivalent to a probability that the two samples differed of P≦0.02.
(§4) Again, classification of samples from experiments employed multiple linear regression methods, based on factors scores rather than on contour shape variables. Factors were generated by combining into a single database, the contour shape variables from highly malignant epithelial cells and precancerous lines that change progressively, eventually become neoplastic. […] Principal components were extracted and transformed by a pattern of rotation to produce latent factors, which described variances that had thereby been rendered orthogonal (8). Factor scores for each cell represented in the database to be estimated. These factor scores from known IAR20 PC1 or 1000 W cells are used as a reference to classify data from short-term experiments on the respective samples. The factors used in classification were selected by the SAS REG procedure (8). […] Predicted time-in-culture values were obtained by submitting the experimental cells to analysis, as described above for simple variables. The statistical significance of differences among sample means within each experiment was determined by the Duncan multiple range test.

[2] = tested on: 1000 W cells; test: as above; design: species or system rat; details: for predicted time (factor-based classification): time zero 612 days; for number of the eight contour shape variables highly correlated with factor #4 that changed significantly: 1000 W cells, FIG. 7—Table 3; for change of signature-type versus control, in words: paclitaxel 2-h or 5 h exposure, insulin 0.1–10 μg/ml
Experimental: as §1, with “Equations were developed to define changes in the signature-type for two epithelial cell lines that underwent transformation over a prolonged time of in vivo culture.” left out
as §2, with “After incubation with the agents for 2–5 h, samples were recovered, fixed in buffered 3% glutaraldehyde (pH 7.3), and air-dried.” left out
as §3, §4

[3] = tested on: IAR20 PC1 cells; test: Indirect immunofluorescence localization of beta-tubulin (microtubule organization); type: cell-based, rat; details: for MT organization / arrangement, in words: exposure 2–5 h; for cells with MT bundles on both sides of the nucleus: taxane alone or IC with 2 μM colchicine
Experimental: Immunofluorescene localization of β-tubulin. IAR20 PC1 cells were subcultured onto sterile glass cover slips as described above. Replicate samples were exposed to test agents for 2–5 h alongside controls, and then fixed and left in methanol at −70° C. until used for the immunofluorescence procedure. To visualize arrays of MTs, cells were exposed to a mouse monoclonal anti-β tubulin antibody (Nycomed Amersham, Little Chalfont, Buckinghamshire, UK), made up at a 1:300 dilution. We used a 1:100 dilution of P3×63 monoclonal antibody from P3 myeloma (generous gift from J. Lessard) as a non-specific control. The secondary antibody, […] goat anti-mouse immunoglobulin G (US Biochemical Corp., Cleveland), was used at a dilution of 1:2000. Cover slips were processed and then mounted on a slide in a solution of 1,4-diazobicyclo[2.2.2]octane (Sigma) made up to 25 mg/ml in glycerol. The samples were photographed on a Zeiss Axiophot microscope equipped with a 63x Planapo lens. Images were recorded on Kodak Tri-X or T-Max film. All of the drugs, including paclitaxel, cephalomannine, colchicine, and baccatin III, were studied to see if they affected the arrangement of MTs. […] MT arrangement was unaltered after treatment with the above-mentioned ionophores and transport inhibitors.

[4] = tested on: IAR20 PC1 cells; test: Uptake of fluid-phase marker horseradish peroxidase; type: cell-based, rat; details: monensin treatment

**Q.** How did the “shift of signature-type (mean predicted time) versus control, in words” value [1] turn out when `CC(=O)O[C@H]1C(=O)[C@]2(C)CC[C@H]3OC[C@@]3(OC(C)=O)[C@H]2[C@H](OC(=O)c2ccccc2)[C@]2(O)C[C@H](OC(=O)[C@H](O)[C@@H](NC(=O)c3ccccc3)c3ccccc3)C(C)=C1C2(C)C` [7-deoxytaxol] was run?
**A.** failed to shift

**Q.** Which “predicted time (factor-based classification)” value ([2]; 30 min after PMA exposure) does the source give for `CCCCCCCCCCCCCC(=O)O[C@@H]1[C@@H](C)[C@@]2(O)[C@@H](C=C(CO)C[C@]3(O)C(=O)C(C)=C[C@@H]23)[C@@H]2C(C)(C)[C@]12OC(C)=O` [PMA, phorbol 12-myristate 13-acetate] here?
**A.** 648 days

**Q.** What about the “predicted time (factor-based classification)” value ([2]; 2 h after PMA exposure) of the same compound?
**A.** 663 days

**Q.** And the “predicted time (factor-based classification)” value ([2]; 5 h after PMA exposure)?
**A.** 668 days

**Q.** What about the “predicted time (factor-based classification)” value ([2]; 10 h after PMA exposure) of the same compound?
**A.** 604 days

**Q.** What about the “factor #1 value” ([2]; PMA time course) of the same compound?
**A.** significantly elevated for a brief period after exposure

**Q.** And the “factor #2 value” ([2]; PMA, 10-h time point)?
**A.** significantly reduced below control

**Q.** And the “factor #7 value (knob-shaped projections on the cell edge)” value ([2]; PMA, one experiment)?
**A.** adopted values like those of transformed cells

**Q.** And the “factor #16 value (size variability in projections at the cell edge)” value ([2]; PMA, one experiment)?
**A.** adopted values like those of transformed cells

**Q.** What about the “factor #4 value” ([2]; PMA, times between 0.5 and 5 h) of the same compound?
**A.** indistinguishable from those of control samples

**Q.** What about the “factor #12 value” ([2]; PMA, times between 0.5 and 5 h) of the same compound?
**A.** indistinguishable from those of control samples

**Q.** How did the “MT organization / arrangement, in words” value [3] turn out when `CC(=O)O[C@H]1C(=O)[C@@]2(C)[C@H]([C@H](OC(=O)c3ccccc3)[C@]3(O)C[C@H](O)C(C)=C1C3(C)C)[C@]1(OC(C)=O)CO[C@@H]1C[C@@H]2O` [baccatin III, Baccatin III] was run?
**A.** little noticeable effect

**Q.** And the “shift of signature-type (mean predicted time) versus control, in words” value [1]?
**A.** failed to shift

**Q.** With `C/C=C(\C)C(=O)N[C@@H](c1ccccc1)[C@@H](O)C(=O)O[C@H]1C[C@@]2(O)[C@@H](OC(=O)c3ccccc3)[C@@H]3[C@]4(OC(C)=O)CO[C@@H]4C[C@H](O)[C@@]3(C)C(=O)[C@H](OC(C)=O)C(=C1C)C2(C)C` [cephalomannine] as the compound, how does the “MT organization / arrangement, in words” value [3] read?
**A.** caused MTs to aggregate in the form of arc-shaped bundles

**Q.** What about the “cells with MT bundles on both sides of the nucleus” value [3] of the same compound?
**A.** 71%

**Q.** What about the “shift of signature-type (mean predicted time) versus control, in words” value [1] of the same compound?
**A.** failed to shift

**Q.** How did the “factors used in classification whose values changed significantly” value [1] turn out when `CCN(CC)CCCC(C)Nc1ccnc2cc(Cl)ccc12` (stereo not shown) [chloroquine] was run?
**A.** did not significantly change any of the factors

**Q.** And the “mean predicted time (signature-type, factor-based classification)” value [1]?
**A.** 315 days

**Q.** Which “MT organization / arrangement, in words” value [3] does the source give for `COc1cc2c(c(OC)c1OC)-c1ccc(OC)c(=O)cc1[C@@H](NC(C)=O)CC2` [colchicine] here?
**A.** complete depolymerization of MTs

**Q.** And the mean predicted time ([2]; 2 μM colchicine for 2 hrs, cells grown in 0.1 μg/ml insulin, untreated 655 days)?
**A.** 737 days

**Q.** What about the mean predicted time ([2]; 2 μM colchicine for 2 hrs, cells grown in 1 μg/ml insulin, untreated 638 days) of the same compound?
**A.** 687 days

**Q.** And the mean predicted time ([2]; 2 μM colchicine for 2 hrs, cells grown in 10 μg/ml insulin, untreated 637 days)?
**A.** 673 days

**Q.** And the “factor #1 value (massive extensions or invaginations in the two uppermost contours)” value ([2]; colchicine exposure)?
**A.** increased

**Q.** And the “average solution of predicted time” value ([2]; second experiment, colchicine-treated sample, control 636 days)?
**A.** 689 days

**Q.** And the “mean predicted time (signature-type, factor-based classification)” value [1]?
**A.** 338 days

**Q.** And the “factor #4 value (filopodia / sharp projections at cell edge)” value [1]?
**A.** decreased

**Q.** What about the “factor #7 value (knob-like structures at the cell edge)” value [1] of the same compound?
**A.** increased

**Q.** And the “factor #12 value (slope at which cell rises from substratum, rounding-up)” value [1]?
**A.** mimicked; also recorded: increased

**Q.** Which results are given for `CC[C@@]1([C@@H]2O[C@@H]([C@H]3O[C@@](O)(CO)[C@H](C)C[C@@H]3C)C[C@@H]2C)CC[C@H]([C@]2(C)CC[C@]3(C[C@H](O)[C@@H](C)[C@@H]([C@@H](C)[C@@H](OC)[C@H](C)C(=O)O)O3)O2)O1` [monensin]?
**A.** time after initial exposure by which horseradish peroxidase uptake was inhibited [4]: ≤ 30 min; average predicted time (factor-based classification) ([1]; 24 μM monensin alone or together with 50 μM ouabain, control 318 days): 344 days; factor #4 value (filopodia / sharp projections at cell edge) [1]: change in factor #4; factor #8 value (sharp features in the second contour) [1]: affected

**Q.** Which results are given for `CC(=O)O[C@H]1C(=O)[C@@]2(C)[C@H]([C@H](OC(=O)c3ccccc3)[C@]3(O)C[C@H](OC(=O)[C@H](O)[C@@H](NC(=O)c4ccccc4)c4ccccc4)C(C)=C1C3(C)C)[C@]1(OC(C)=O)CO[C@@H]1C[C@@H]2O` [paclitaxel]?
**A.** MT organization / arrangement, in words [3]: large bundles of MTs; cells with MT bundles on both sides of the nucleus [3]: 56%; number of the eight contour shape variables highly correlated with factor #4 that changed significantly [2]: six of their values differed significantly; number of the eight contour shape variables highly correlated with factor #4 that changed significantly ([2]; listed as Paclitaxel): six out of the eight; change of signature-type versus control, in words [2]: failed to elicit any change; factors used in classification whose values changed significantly [1]: changes in factors #1, #7, and #12; shift of signature-type (mean predicted time) versus control, in words [1]: failed to promote the signature-type; mean predicted time (signature-type, factor-based classification) [1]: 304 days; factors whose values changed ([1]; paclitaxel at a high concentration over a 4-h period): changes in #1, #7, #8, and #13; factor #12 value (slope at which cell rises from substratum, rounding-up) [1]: counteracted

**Q.** How did the “mean predicted time (signature-type, factor-based classification)” value [1] turn out when `CC(C)[C@@H]1NC(=O)[C@H](C)OC(=O)[C@@H](C(C)C)NC(=O)[C@@H](C(C)C)OC(=O)[C@H](C(C)C)NC(=O)[C@H](C)OC(=O)[C@@H](C(C)C)NC(=O)[C@@H](C(C)C)OC(=O)[C@H](C(C)C)NC(=O)[C@H](C)OC(=O)[C@@H](C(C)C)NC(=O)[C@@H](C(C)C)OC1=O` [valinomycin] was run?
**A.** 336 days

**Q.** And the “factor #4 value (filopodia / sharp projections at cell edge)” value [1]?
**A.** change in factor #4

**Q.** What about the “factor #8 value (sharp features in the second contour)” value [1] of the same compound?
**A.** affected

**Q.** With gramicidin D as the compound, how does the “mean predicted time (signature-type, factor-based classification)” value [1] read?
**A.** 387 days

**Q.** And the “factor #4 value (filopodia / sharp projections at cell edge)” value [1]?
**A.** change in factor #4

**Q.** And the “factor #7 value (knob-like structures at the cell edge)” value [1]?
**A.** increase

**Q.** What does the source list for insulin?
**A.** mean predicted time ([2]; grown in 0.1 μg/ml insulin, no colchicine): 655 days; mean predicted time ([2]; grown in 1 μg/ml insulin, no colchicine): 638 days; mean predicted time ([2]; grown in 10 μg/ml insulin, no colchicine): 637 days; change of signature-type versus control, in words [2]: no significant differences
